Legend:
[1] = test system: A375 (melanoma); assay: In vitro cytotoxic activity (MTT) assay, A375; format: cell-based; conditions: Homo sapiens, A-375; A375 (melanoma) cells, exposed for 96 hours; read-out: IC50, concentration eliciting 50% inhibition of cell proliferation
Experimental: (§1) Compounds 1-15 were screened for their in vitro cytotoxic activity utilizing a 3-(4,5-dimethyl-thiazol-2-yl)-2,5-diphenyltetrazolium bromide (MTT) assay against selected cancer human cell lines consisting of PC3 (prostate), HCT116 (colon), A375 (melanoma), H1299 (lung), MIAPaCa-2 (pancreas), HL60 (leukemia), MCF7 (breast), MDA-MB-231 (breast) (T. Mosmann, J. Immunol. Meth., 1983, 65, 55-63). The cells were cultured at 37° C. in RMPI1640 medium supplemented with 10% fetal bovine serum, 50 IU/mL penicillin, and 50 μg/mL streptomycin in a 5% CO2 incubator. All cells were sub-cultured 3 times/week by trypsinisation. Viable cells were seeded and allowed to adhere for 12 h before a test drug was added in 96-well plates at an initial density of 1.0×10^5 cells/mL. Tumor cell lines were separately exposed to various concentrations of the tested compounds followed by incubation at a temperature of 37° C. during 96 hours inside a medium of fresh RMPI 1640. Cells were subsequently incubated at 37° C. using MTT at 0.5 mg/mL during 4 hours. After removal of supernatant, formazan crystals were dissolved in isopropanol and the optical density was measured at 570 nm. CX-4945 was used as a positive control.

[2] = test system: H1299 (lung); assay: In vitro cytotoxic activity (MTT) assay, H1299; format: cell-based; conditions: Homo sapiens, NCI-H1299; H1299 (lung) cells, exposed for 96 hours; read-out: IC50, concentration eliciting 50% inhibition of cell proliferation
Experimental: as §1

[3] = biological target: T1, recombinant human CK2 (RRββ-holoenzyme) (Homo sapiens, UniProt P68400); assay: CK2 Kinase Assay (33P-ATP, filter plate); format: biochemical; conditions: final ATP concentration 15 μM, 10 min at 30° C.; read-out: protein kinase CK2 IC50
T1 construct: purchased Millipore
Experimental: CK2 Kinase Assay was conducted using the protocol as described in Pierre F. et al; J. Med. Chem. 2011, 54, 635-654. The tested compounds in aqueous solution were added at a volume of 10 μL to a reaction mixture comprising 10 μL of assay dilution buffer (ADB; 20 mM MOPS, pH 7.2, 25 mM β-glycerol phosphate, 5 mM EGTA, 1 mM sodium orthovanadate, and 1 mM dithiothreitol), 10 μL of substrate peptide (RRRDDDSDDD, dissolved in ADB at a concentration of 1 mM), 10 μL of recombinant human CK2 (RRββ-holoenzyme, 25 ng dissolved in ADB; Millipore). Reactions were initiated by the addition of 10 μL of ATP solution (90% 75 mMMgCl2, 75 μM ATP (final ATP concentration: 15 μM) dissolved in ADB; 10% [γ-33P] ATP (stock 1mCi/100 μL; 3000 Ci/mmol (Perkin-Elmer) and maintained for 10 min at 30° C. The reactions were quenched with 100 μL of 0.75% phosphoric acid and then transferred to and filtered through a phosphor cellulose filter plate (Millipore). After washing each well five times with 0.75% phosphoric acid, the plate was dried under vacuum for 5 min and, following the addition of 15 μL of scintillation fluid to each well, the residual radioactivity was measured using a Wallac luminescence counter. The IC50 values were derived from eight concentrations of test inhibitors.

[4] = test system: MDA-MB-231 (breast); assay: In vitro cytotoxic activity (MTT) assay, MDA-MB-231; format: cell-based; conditions: Homo sapiens; MDA-MB-231 (breast) cells, exposed for 96 hours; read-out: IC50, concentration eliciting 50% inhibition of cell proliferation
Experimental: as §1

[5] = test system: HCT116 (colon); assay: In vitro cytotoxic activity (MTT) assay, HCT116; format: cell-based; conditions: Homo sapiens, HCT-116; HCT116 (colon) cells, exposed for 96 hours; read-out: IC50, concentration eliciting 50% inhibition of cell proliferation
Experimental: as §1

[6] = test system: MCF7 (breast); assay: In vitro cytotoxic activity (MTT) assay, MCF7; format: cell-based; conditions: Homo sapiens; MCF7 (breast) cells, exposed for 96 hours; read-out: IC50, concentration eliciting 50% inhibition of cell proliferation
Experimental: as §1

[7] = test system: PC3 (prostate); assay: In vitro cytotoxic activity (MTT) assay, PC3; format: cell-based; conditions: Homo sapiens, Prostate cell; PC3 (prostate) cells, exposed for 96 hours; read-out: IC50, concentration eliciting 50% inhibition of cell proliferation
Experimental: as §1

[8] = test system: HL60 (leukemia); assay: In vitro cytotoxic activity (MTT) assay, HL60; format: cell-based; conditions: Homo sapiens, HL-60; HL60 (leukemia) cells, exposed for 96 hours; read-out: IC50, concentration eliciting 50% inhibition of cell proliferation
Experimental: as §1

[9] = test system: MIAPaCa-2 (pancreas); assay: In vitro cytotoxic activity (MTT) assay, MIAPaCa-2; format: cell-based; conditions: Homo sapiens, MIA PaCa-2; MIAPaCa-2 (pancreas) cells, exposed for 96 hours; read-out: IC50, concentration eliciting 50% inhibition of cell proliferation
Experimental: as §1

T1 sequence (P68400 whole entry): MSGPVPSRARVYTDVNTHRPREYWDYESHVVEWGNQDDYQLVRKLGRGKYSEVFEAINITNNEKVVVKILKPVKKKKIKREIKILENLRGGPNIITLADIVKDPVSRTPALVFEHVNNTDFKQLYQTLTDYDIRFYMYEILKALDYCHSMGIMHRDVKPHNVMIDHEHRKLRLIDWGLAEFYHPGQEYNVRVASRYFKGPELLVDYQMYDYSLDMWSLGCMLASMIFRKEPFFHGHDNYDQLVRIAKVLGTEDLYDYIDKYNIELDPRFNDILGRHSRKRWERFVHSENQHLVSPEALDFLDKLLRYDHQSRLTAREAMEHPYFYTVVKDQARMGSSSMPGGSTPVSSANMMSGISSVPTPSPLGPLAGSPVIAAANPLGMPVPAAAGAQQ
T1 sequence (P67870 whole entry partner): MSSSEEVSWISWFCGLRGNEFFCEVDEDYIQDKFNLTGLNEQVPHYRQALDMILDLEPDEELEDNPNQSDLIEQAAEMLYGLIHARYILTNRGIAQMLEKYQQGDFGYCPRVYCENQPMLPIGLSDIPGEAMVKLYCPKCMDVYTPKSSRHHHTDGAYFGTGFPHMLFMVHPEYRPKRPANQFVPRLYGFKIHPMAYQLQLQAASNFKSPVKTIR

IC50 [3]: 29 nM
SMILES: Clc1cccc(Nc2nc3ccncc3c3[nH]c4ccncc4c23)c1 [Compound 1, N-(3-chlorophenyl)-11H-pyrido[3′,4′:4,5]pyrrolo[3,2-c][1,6]naphthyridin-6-amine]
IC50 [1]: 4400 nM
IC50 [2]: 1200 nM
IC50 [4]: 2600 nM
IC50 [5]: 1300 nM
IC50 [6]: 3100 nM
IC50 [7]: 1000 nM
IC50 [8]: 3500 nM
IC50 [9]: 1100 nM

From patent publication US11964976B1, “Substituted pyrido[3′,4′:4,5]pyrrolo[3,2-c][1,6]naphthyridines as CK2 inhibitors” (KING FAISAL UNIVERSITY, priority 2023, dated 2024)
